In patent publication US10888544B2, “Methods for treating Gaucher disease” (Genzyme Corporation, priority 2017, dated 2021):
Values joined by “and” are separate entries in the source; they are usually repeats but may differ in a detail not shown here. Identical values can stand only once. Like-named read-outs stand apart in the source and are kept apart here.

Assay: Phase 1 single dose pharmacokinetic study of eliglustat tartrate in severe renal impairment and matched normal renal function subjects (Example 3)
Assay type: in vivo, human
Details: for AUC / Cmax / AUC(0-inf) / AUC(0-t) / Vd/F / Tmax: human, 100 mg; for AUC: read-out: AUC, geometric mean
Protocol: A phase 1, open-label, 2-stage, pharmacokinetic and tolerability study of single dose eliglustat tartrate in subjects with renal impairment (RI) (mild, moderate, and severe) and subjects with normal renal function, matched to RI subjects by age, weight, and cytochrome P450 [CYP] 2D6 phenotype was carried out to study the effect of mild, moderate, and severe RI on the pharmacokinetics (PK) of eliglustat.
Methodology: A phase 1, open-label, 2-stage, pharmacokinetic and tolerability study of single dose eliglustat tartrate in subjects with renal impairment (RI) (mild, moderate, and severe) and subjects with normal renal function, matched to RI subjects by age, weight, and cytochrome P450 [CYP] 2D6 phenotype.
Approximately 32 subjects were planned to be enrolled in 2 stages: Stage 1 comprised of 8 subjects with severe RI and 8 subjects with normal renal function, matched by CYP2D6 phenotype, weight, and age. […] Stage 2 was to include 8 subjects with mild and 8 subjects with moderate RI. Each cohort was to enroll at least 6 CYP2D6 extensive metabolizers (EMs). The remaining 2 subjects were to be poor metabolizers (PMs), intermediate metabolizers (IMs) or EMs, enrolled according to the following preference: at least 20 subjects were to be screened for each cohort and if identified, up to 2 PMs were to be enrolled. If less than 2 PMs were identified, up to 2 IMs were to be enrolled for a total of 8 subjects. If less than 2 PMs and IMs were identified, up to 2 additional EMs were to be enrolled for a total of 8 subjects. Allowed concomitant medications included no more than one weak CYP3A inhibitor and one weak CYP2D6 inhibitor, alone or in combination.
CYP2D6 EMs and IMs were to receive a single 100 mg dose of eliglustat tartrate while CYP2D6 PMs were to receive a single 50 mg dose of eliglustat tartrate.
Normal renal function subjects: Male or female subjects, between 18 and 79 years, inclusive, body weight within 15% of the body weight of matched subject with RI, BMI between 18.0 and 37.0 kg/m^2 and a CrCl of >80 mL/min. Healthy subjects were also matched by age and CYP2D6 predicted phenotype based on genotype.
A single 100 mg capsule of eliglustat tartrate (equivalent to 84 mg of eliglustat) was to be administered to CYP2D6 EM or IM subjects with RI and matching healthy subjects.
Pharmacokinetics: Plasma eliglustat concentrations were used to determine the following PK parameters using noncompartmental methods: Maximum plasma concentration observed (Cmax), first time to reach Cmax (tmax), area under the plasma concentration versus time curve calculated using the trapezoidal method from time zero to the time corresponding to the last concentration above the limit of quantification, tlast (AUClast), area under the plasma concentration time curve extrapolated to infinity (AUC), terminal half-life associated with the terminal slope Xz (t1/2z), apparent total body clearance of a drug from plasma (CL/F), and apparent volume of distribution during the terminal phase (VZ/F).
Blood samples were collected at the following time points to assess plasma concentrations of eliglustat: predose, and 0.5, 1, 1.5, 2, 2.5, 3, 4, 6, 8, 10, 12, 24, and 36 hours postdose.
Eliglustat concentrations in plasma were determined using a validated liquid chromatography tandem mass spectrometry method with a lower limit of quantification (LLOQ) of 0.2 ng/mL.
Eliglustat PK parameters were summarized using descriptive statistics for each population group and for each CYP2D6 phenotype. For log-transformed Cmax, AUClast, AUC, t1/2z, CL/F, and Vz/F, the effect of severe RI on eliglustat PK parameters after a single dose of eliglustat tartrate was analyzed using a linear fixed effects model on CYP2D6 EM subjects. Inclusion of population, CYP3A weak inhibitor, age, and weight as covariate was selected manually, choosing the model with the lowest AlC value. After testing, the final model chosen were those with only population as fixed term. […]

[1] = CYP2D6 EM, healthy, N=7, single oral 100 mg eliglustat tartrate, plasma
[2] = CYP2D6 EM, severe RI, N=7, single oral 100 mg eliglustat tartrate, plasma
[3] = CYP2D6 IM, healthy, N=1, single oral 100 mg eliglustat tartrate, plasma
[4] = IM severe RI subject taking escitalopram and amlodipine
[5] = Severe RI vs Healthy, CYP2D6 EM subjects (7 severe RI and 7 healthy)

## CCCCCCCC(=O)N[C@H](CN1CCCC1)[C@H](O)c1ccc2c(c1)OCCO2 [eliglustat, N-((1R,2R)-1-(2,3-dihydrobenzo[b][1,4]dioxin-6-yl)-1-hydroxy-3-(pyrrolidin-1-yl)propan-2-yl)octanamide]
[1]
  CL/F, geometric mean: (834) [55.2] L/h
  CL/F, mean ± SD: 963 ± 532 L/h
  t1/2z, geometric mean: (8.39) [17.8] h
  t1/2z, mean ± SD: 8.50 h and 8.50 ± 1.51 h
  tlast, median: 36.00 h
[2]
  CL/F, geometric mean: (845) [39.2] L/h
  CL/F, mean ± SD: 903 ± 354 L/h
  t1/2z, geometric mean: (6.51) [13.3] h
  t1/2z, mean ± SD: 6.56 h and 6.56 ± 0.876 h
  tlast, median: 36.00 h
[3]
  CL/F: 151 L/h
  t1/2z: 9.59 h
  tlast: 36.00 h
CYP2D6 IM, severe RI, N=1, taking escitalopram and amlodipine, single oral 100 mg eliglustat tartrate, plasma
  tlast: 36.00 h
[4]
  AUClast ratio, CYP2D6 IM with severe RI vs CYP2D6 EM with severe RI: 35.2 fold
  AUClast ratio, CYP2D6 IM with severe RI vs CYP2D6 IM healthy subject: 6.90 fold
  AUClast ratio, CYP2D6 IM with severe RI vs healthy CYP2D6 EMs: 32.1 fold
[5]
  AUClast geometric mean ratio, point estimate: 0.994
  CL/F geometric mean ratio, point estimate: 1.014
  Vz/F geometric mean ratio, point estimate: 0.787
  t1/2z geometric mean ratio, point estimate: 0.776
Both sexes, plasma, oral, CYP2D6 EM, severe RI, coadministered weak CYP3A inhibitor amlodipine, N=5
  AUC: 98.3 ng·h/mL
Both sexes, plasma, oral, CYP2D6 EM, severe RI, coadministered weak CYP3A inhibitor amlodipine, N=5, read-out: Cmax, geometric mean
  Cmax: 10.6 ng/mL
Both sexes, plasma, oral, CYP2D6 EM, severe RI, eliglustat tartrate alone, N=2
  AUC: 104 ng·h/mL
Both sexes, plasma, oral, CYP2D6 EM, severe RI, eliglustat tartrate alone, N=2, read-out: Cmax, geometric mean
  Cmax: 15.2 ng/mL
Both sexes, plasma, po, CYP2D6 EM, healthy, N=7, single oral 100 mg eliglustat tartrate, plasma, read-out: AUC (extrapolated to infinity), geometric mean
  AUC(0-inf): 101 ng·h/mL
Both sexes, plasma, po, CYP2D6 EM, healthy, N=7, single oral 100 mg eliglustat tartrate, plasma, read-out: AUC (extrapolated to infinity), mean ± SD
  AUC(0-inf): 118 ± 71.1 ng·h/mL
Both sexes, plasma, po, CYP2D6 EM, healthy, N=7, single oral 100 mg eliglustat tartrate, plasma, read-out: AUClast, geometric mean
  AUC(0-t): 96 ng·h/mL
Both sexes, plasma, po, CYP2D6 EM, healthy, N=7, single oral 100 mg eliglustat tartrate, plasma, read-out: AUClast, mean ± SD
  AUC(0-t): 112 ± 68.7 ng·h/mL
Both sexes, plasma, po, CYP2D6 EM, healthy, N=7, single oral 100 mg eliglustat tartrate, plasma, read-out: Cmax, geometric mean
  Cmax: 13.4 ng/mL
Both sexes, plasma, po, CYP2D6 EM, healthy, N=7, single oral 100 mg eliglustat tartrate, plasma, read-out: Cmax, mean ± SD
  Cmax: 17.6 ± 13.2 ng/mL
Both sexes, plasma, po, CYP2D6 EM, healthy, N=7, single oral 100 mg eliglustat tartrate, plasma, read-out: Vz/F, geometric mean
  Vd/F: 10100 L
Both sexes, plasma, po, CYP2D6 EM, healthy, N=7, single oral 100 mg eliglustat tartrate, plasma, read-out: Vz/F, mean ± SD
  Vd/F: 11700 ± 6710 L
Both sexes, plasma, po, CYP2D6 EM, healthy, N=7, single oral 100 mg eliglustat tartrate, plasma, read-out: tmax, median
  Tmax: 1.5 h
Both sexes, plasma, po, CYP2D6 EM, severe RI, N=7 (5 taking amlodipine), single oral 100 mg eliglustat tartrate, plasma, read-out: Cmax, mean ± SD
  Cmax: 12.7 ± 4.85 ng/mL
Both sexes, plasma, po, CYP2D6 EM, severe RI, N=7, single oral 100 mg eliglustat tartrate, plasma, read-out: AUC (extrapolated to infinity), geometric mean
  AUC(0-inf): 99.8 ng·h/mL
Both sexes, plasma, po, CYP2D6 EM, severe RI, N=7, single oral 100 mg eliglustat tartrate, plasma, read-out: AUC (extrapolated to infinity), mean ± SD
  AUC(0-inf): 107 ± 42.1 ng·h/mL
Both sexes, plasma, po, CYP2D6 EM, severe RI, N=7, single oral 100 mg eliglustat tartrate, plasma, read-out: AUClast, geometric mean
  AUC(0-t): 95.5 ng·h/mL
Both sexes, plasma, po, CYP2D6 EM, severe RI, N=7, single oral 100 mg eliglustat tartrate, plasma, read-out: AUClast, mean ± SD
  AUC(0-t): 102 ± 41.7 ng·h/mL
Both sexes, plasma, po, CYP2D6 EM, severe RI, N=7, single oral 100 mg eliglustat tartrate, plasma, read-out: Cmax, geometric mean
  Cmax: 11.8 ng/mL
Both sexes, plasma, po, CYP2D6 EM, severe RI, N=7, single oral 100 mg eliglustat tartrate, plasma, read-out: Vz/F, geometric mean
  Vd/F: 7940 L
Both sexes, plasma, po, CYP2D6 EM, severe RI, N=7, single oral 100 mg eliglustat tartrate, plasma, read-out: Vz/F, mean ± SD
  Vd/F: 8480 ± 3190 L
Both sexes, plasma, po, CYP2D6 EM, severe RI, N=7, single oral 100 mg eliglustat tartrate, plasma, read-out: tmax, median
  Tmax: 4 h
plasma, oral, CYP2D6 IM, healthy, N=1, single oral 100 mg eliglustat tartrate, plasma, read-out: AUC (extrapolated to infinity)
  AUC(0-inf): 559 ng·h/mL
plasma, oral, CYP2D6 IM, healthy, N=1, single oral 100 mg eliglustat tartrate, plasma, read-out: AUClast
  AUC(0-t): 520 ng·h/mL
plasma, oral, CYP2D6 IM, healthy, N=1, single oral 100 mg eliglustat tartrate, plasma, read-out: Cmax
  Cmax: 54.7 ng/mL
plasma, oral, CYP2D6 IM, healthy, N=1, single oral 100 mg eliglustat tartrate, plasma, read-out: Vz/F
  Vd/F: 2090 L
plasma, oral, CYP2D6 IM, healthy, N=1, single oral 100 mg eliglustat tartrate, plasma, read-out: tmax
  Tmax: 3 h
plasma, oral, CYP2D6 IM, severe RI, N=1, taking escitalopram and amlodipine, single oral 100 mg eliglustat tartrate, plasma, read-out: AUClast
  AUC(0-t): 3590 ng·h/mL
plasma, oral, CYP2D6 IM, severe RI, N=1, taking escitalopram and amlodipine, single oral 100 mg eliglustat tartrate, plasma, read-out: Cmax
  Cmax: 220 ng/mL
plasma, oral, CYP2D6 IM, severe RI, N=1, taking escitalopram and amlodipine, single oral 100 mg eliglustat tartrate, plasma, read-out: tmax
  Tmax: 4 h
